Assay results from PubChem BioAssay (NCI).
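Method: 48-hour compound exposure of cells in 96-well plates, five concentrations, linear interpolation of endpoints. The concentration for 50% growth inhibition is given as GI50. At the TGI there is no net growth.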

What was measured:
Test in all cases: growth of human tumour cells (NCI), 48 h
SK-OV-3 ovarian = system: SK-OV-3 ovarian
A549 NSCLC = system: A549 NSCLC
HOP-62 NSCLC = system: HOP-62 NSCLC
OVCAR-8 ovarian = system: OVCAR-8 ovarian
EKVX NSCLC = system: EKVX NSCLC
TK-10 renal = system: TK-10 renal
SF-295 CNS = system: SF-295 CNS
SNB-19 CNS = system: SNB-19 CNS
SK-MEL-5 melanoma = system: SK-MEL-5 melanoma
SN12C renal = system: SN12C renal

SMILES | TGI (SK-OV-3 ovarian) | TGI (A549 NSCLC) | TGI (HOP-62 NSCLC) | TGI (OVCAR-8 ovarian) | TGI (EKVX NSCLC) | TGI (TK-10 renal) | TGI (SF-295 CNS) | TGI (SNB-19 CNS) | TGI (SK-MEL-5 melanoma) | TGI (SN12C renal) | GI50 (SK-OV-3 ovarian) | GI50 (A549 NSCLC) | GI50 (HOP-62 NSCLC) | GI50 (SF-295 CNS) | GI50 (OVCAR-8 ovarian) | GI50 (SNB-19 CNS) | GI50 (EKVX NSCLC) | GI50 (TK-10 renal) | GI50 (SN12C renal) | GI50 (SK-MEL-5 melanoma)
NC(=O)C12CC3CC(CC(F)(C3)C1)C2 | > 100 µM | > 100 µM | > 100 µM | > 100 µM | > 100 µM | > 100 µM |  |  |  |  |  |  |  |  |  |  |  |  |  | 
CC1c2c(Cl)nc3ccccc3c2Oc2c1c(Cl)nc1ccccc21 | > 100 µM | > 100 µM | > 100 µM | > 100 µM | > 100 µM | > 100 µM | > 100 µM | > 100 µM | > 100 µM |  |  |  |  |  |  |  |  |  |  | 
O=C(/C=C/c1cccc2ccccc12)c1ccccc1Cl | 43.1 µM | 55.7 µM | 37.3 µM | 26.7 µM | 28.6 µM | 28.1 µM |  | 27 µM | 30.8 µM | > 100 µM |  |  |  |  |  |  |  |  |  | 
CC1CN(C(=O)CN2CCC(CCCCN(C)C)CC2)c2ccccc2NC1=O (stereo not drawn) | > 100 µM | > 100 µM | > 100 µM |  |  |  | > 100 µM | > 100 µM | > 100 µM | > 100 µM |  |  |  |  |  |  |  |  |  | 
COC1(OC)C(N(C)C)=C(Cl)C(=O)/C1=C/C=O | > 100 µM | > 100 µM | > 100 µM | > 100 µM |  | > 100 µM | > 100 µM | > 100 µM | > 100 µM | > 100 µM |  |  |  |  |  |  |  |  |  | 
COc1cc2c(cc1OCCCNC(=O)c1cccc3c(=O)c4ccccc4[nH]c13)N=C[C@@H]1CCCN1C2=O | > 100 µM | > 100 µM | 0.399 µM |  | 0.14 µM | 2.66 µM | 4.46 µM | > 45.7 µM |  | < 0.0126 µM | 5.58 µM | 0.0202 µM | < 0.01 µM | < 0.0508 µM | 0.01 µM | < 0.0206 µM | 0.0166 µM | < 0.0434 µM | < 0.01 µM | 
CCOC(=O)C(=[N+]=[N-])[Si](C)(C)C |  | > 100 µM | 49.7 µM | > 100 µM |  | > 100 µM | > 100 µM | > 100 µM | > 100 µM | > 100 µM |  |  |  |  |  |  |  |  |  | 
CC(=O)c1sc(Nc2nnc(-c3ccc(-c4nnc(Nc5nc(C)c(C(C)=O)s5)o4)cc3)o2)nc1C | > 10 µM | > 10 µM | > 100 µM | > 100 µM | > 100 µM | > 100 µM | > 100 µM | > 100 µM |  | > 100 µM |  |  |  |  |  |  |  |  |  | 
O=C1/C(=C/c2cccc(Cl)c2Cl)N=C(c2ccccc2)N1C1CC1 |  | > 50 µM | 16.5 µM | > 50 µM | 22.2 µM | 27.7 µM | 31.3 µM | 33.2 µM | 24.7 µM | 17.5 µM |  | 19.7 µM | 8.37 µM | 12.7 µM | 26.5 µM | 12.7 µM | 9.9 µM | 10.7 µM | 8.62 µM | 11.4 µM
COc1cc(-c2cc(-c3cc4c([nH]c5ccccc54)c(-c4cc(OC)c(OC)c(OC)c4)n3)cc(-c3ccccc3)n2)cc(OC)c1OC | 51.9 µM | 80.9 µM | > 100 µM | 43.4 µM |  | 31.2 µM |  | > 100 µM | 7.61 µM | > 100 µM | 5 µM | 3.4 µM | 4.53 µM |  | 4.01 µM | 9.92 µM |  | 4.5 µM | 4.08 µM | 2.46 µM
